Assay results as given in ChEMBL document CHEMBL1123983, “Bis(4-hydroxyphenyl)[2-(phenoxysulfonyl)phenyl]methane: isolation and structure elucidation of a novel estrogen from commercial preparations of phenol red (phenolsulfonphthalein)” (J Med Chem, 1988).

Biological target: Estrogen receptor (Homo sapiens) (UniProt Q92731+P03372)
Assay: Estrogen-related induction of progesterone receptor expression in MCF-7 cells at 10e-6 M
Assay type: cell-based
Details: MCF7

`O=S(=O)(Oc1ccccc1)c1ccccc1C(c1ccc(O)cc1)c1ccc(O)cc1` was tested, and the PR level, % of control was 1680%.
